Source: patent publication US20240000786A1, “COMPOSITION FOR ENHANCING INTRA-CELLULAR NITRIC OXIDE GENERATION” (INSTITUTE OF LIFE SCIENCES, priority 2020, published 2024)

Assays:
[1] = biological target: T1, rNOSIP (Homo sapiens, UniProt Q9Y314); test: Isothermal titration calorimetry (ITC) of rNOSIP with small molecules / 18 mer iNOS peptide (PP2); type: binding
T1 construct: made in house; host or cells: E. coli BL21 (DE3)
T1 sequence (Q9Y314 with tags, fused parts or gaps): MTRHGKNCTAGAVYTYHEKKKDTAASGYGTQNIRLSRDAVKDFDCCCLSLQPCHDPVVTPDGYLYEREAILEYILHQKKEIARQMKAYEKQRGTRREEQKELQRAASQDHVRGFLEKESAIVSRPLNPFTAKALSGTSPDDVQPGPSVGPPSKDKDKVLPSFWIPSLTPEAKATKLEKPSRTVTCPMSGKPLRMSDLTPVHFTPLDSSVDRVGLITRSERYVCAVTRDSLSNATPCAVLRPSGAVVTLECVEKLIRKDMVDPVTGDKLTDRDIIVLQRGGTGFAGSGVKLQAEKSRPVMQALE
Experimental: The 18 mer iNOS peptide (PP2) and small molecules were used for physical association of molecules in calorimetric analysis. The molecular association leads to thermodynamics changes such as Gibb's free energy change (ΔG), entropy change (ΔS), enthalpy change (ΔH) and number of binding sites (N) in interacting solution were investigated by isothermal calorimetry MICROCAL PEQ (Malvern) at 25° C. […] The experiment consisted of multiple injections and each injection contained 1.5 μl of binding solution (recombinant NOSIP solution) with 120 second spacing time between subsequent injections. Sequential titrations were carried out and the sample solution was continuously stirred at 270 rpm by the rotating paddle attached to the syringe needle. Multiple injections of NOSIP made into the sample cell containing interacting solution of peptide and small molecules. The titration curves were analyzed using the analysis software provided with the calorimeter.
The 18 mer iNOS peptide (PP2) and five small molecules were used to analyze physical association in calorimetric analysis. The molecular association leads to thermodynamics changes such as Gibb's free energy change (ΔG), entropy change (ΔS), enthalpy change (ΔH) and number of binding sites (N) in interacting solution were investigated by isothermal calorimetry MICROCAL PEQ (Malvern) at 25° C. […] The experiment consisted of multiple injections and each injection contained 1.5 μl of binding solution with 120 second spacing time between subsequent injections. Sequential titrations were carried out and the sample solution was continuously stirred at 270 rpm by the rotating paddle attached to the syringe needle. Multiple injections of NOSIP made into the sample cell containing interacting solution of peptide and small molecules. The titration curves were analyzed using the analysis software provided with the calorimeter.

[2] = biological target: T2, iNOS-NOSIP protein interaction (Homo sapiens, UniProt Q9Y314); test: SPR: inhibition of rNOSIP association with immobilized recombinant iNOS by iNOS peptides / small molecules; type: binding
T2 construct: made in house; host or cells: E. coli BL21 (DE3)
T2 sequence (Q9Y314 with tags, fused parts or gaps): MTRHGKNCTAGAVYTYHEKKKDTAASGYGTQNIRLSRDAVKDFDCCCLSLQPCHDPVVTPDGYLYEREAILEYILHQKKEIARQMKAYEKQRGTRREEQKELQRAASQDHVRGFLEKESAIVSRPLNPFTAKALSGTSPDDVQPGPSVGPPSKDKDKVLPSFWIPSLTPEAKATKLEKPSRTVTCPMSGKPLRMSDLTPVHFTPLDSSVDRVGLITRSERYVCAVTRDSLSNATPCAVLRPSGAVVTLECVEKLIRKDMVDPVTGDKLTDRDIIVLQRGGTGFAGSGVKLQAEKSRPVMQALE
Experimental: Four different iNOS peptides were synthesized commercially by China peptides and iNOS peptides were used for molecular interaction studies with immobilized recombinant iNOS purified protein. The iNOS peptides mediated inhibition of rNOSIP and riNOS protein association in Bio-Rad XPR 36 surface plasmon resonance biosensor instrument. […] 250 nM of iNOS peptides was used for inhibition assay with immobilized ligand(recombinant iNOS) in SPR analysis. Similar condition and concentration of small molecules were used for inhibition of recombinant protein association with immobilized ligand. […] The rNOSIP protein was incubated with iNOS derived peptide/small molecules for 30 minutes in ice for inhibition assay before the SPR application in our study. The molecular interaction was carried out at 20° C. and kinetic parameters were determined, after fitting the association and dissociation curves to a 1:1 (Langmuir)-binding model. An activated channel without immobilized ligand was used to evaluate nonspecific binding. The response curves were also recorded on control surfaces. Results were calculated after subtraction of the control values using the ProteOn Manager software.
The collected sensorgram data were processed by reference subtraction using double-referencing with the in-line blank buffer. The integrated ProteOn Manager software was used to fit the data with the Langmuir model describing a 1:1 binding stoichiometry. Ka is the association rate constant, Kd is the dissociation rate constant, and KD is the equilibrium dissociation constant, defined by the Kd/Ka ratio for the analytes-ligand binding.
The five small molecules bind with NOSIP and inhibit the association of recombinant NOSIP and recombinant iNOS. The rNOSIP protein was incubated with iNOS derived peptide or small molecules for 30 minutes in ice prior to SPR application. The molecular interaction was carried out at 20° C. and kinetic parameters were determined, after fitting the association and dissociation curves to a 1:1 (Langmuir)-binding model. An activated channel without immobilized ligand (recombinant iNOS) was used to evaluate nonspecific binding. The response curves were also recorded on control surfaces. Results were calculated after subtraction of the control values using the ProteOn Manager software.
The collected sensorgram data were processed by reference subtraction using double-referencing with the in-line blank buffer. The integrated ProteOn
Manager software was used to fit the data with the Langmuir model describing a 1:1 binding stoichiometry. Ka is the association rate constant, Kd is the dissociation rate constant, and KD is the equilibrium dissociation constant, defined by the Kd/Ka ratio for the analytes—ligand binding.

[3] = system: Mouse BMDMs; test: Nitric oxide production by individual small molecules in mouse BMDM; type: cell-based
[4] = ITC 25° C., small molecule/peptide in cell, NOSIP in syringe

ΔG ([1]; ITC 25° C.): -8.61 kcal/mol
ΔH ([1]; ITC 25° C.): -9.07 ± 0.251 kcal/mol
−TΔS ([1]; ITC 25° C.): 0.459 kcal/mol
Kd [1, 4]: 0.493 ± 0.0632 µM
N (Sites) [1, 4]: 0.993
Fold Change (KD) ([1]; ITC KD relative to iNOS-Peptide2 = 1): 0.899
Ka(1/Ms) ([2]; analyte rNOSIP alone or + peptide/small molecule, ligand r iNOS, 20° C., 1:1 Langmuir): 6.7e^−01 1/Ms
Kd ([2]; analyte rNOSIP alone or + peptide/small molecule, ligand r iNOS, 20° C., Kd/Ka): 809 µM
SMILES: CCN(c1ccccc1)S(=O)(=O)c1ccc(Cl)c(NC(=O)COC(=O)c2ccccc2SCC(=O)Nc2ccc3c(c2)OCO3)c1 [MCULE-8094061955, ({2-chloro-5-[ethyl(phenyl)sulfamoyl]phenyl}carbamoyl)methyl 2-({[(2H-1,3-benzodioxol-5-yl)carbamoyl]methyl}sulfanyl) benzoate]
SM binding affinity with NOSIP, hierarchy ([1]; ITC, rank order): CC4>CC11>CC6>CC5>CC13>Peptide 2 (iNOS)
inhibition hierarchy of iNOS-NOSIP protein interaction ([2]; SPR, rank order): CC4>CC11>CC6>CC5>CC13>iNOS Peptide 2
inhibition of binding of NOSIP with iNOS ligand by small molecules ([2]; rNOSIP 250 nM, small molecules 1 uM, SPR (FIG. 4)): inhibit the binding of NOSIP with iNOS ligand
nitric oxide produced, individual small molecules compared [3]: more effective with mouse cells
